Assay [1] addresses T1, Protein-S-isoprenylcysteine O-methyltransferase (Homo sapiens, UniProt O60725). Description: Activity at human isoprenylcysteine carboxyl methyltransferase using [14C]SAM by vapor diffusion assay relative to AFC.
The target in assay [2] is T1, Protein-S-isoprenylcysteine O-methyltransferase. Briefly: Inhibition of human isoprenylcysteine carboxyl methyltransferase using [14C]SAM and N-acetyl-S-farnesyl-L-cysteine as substrate at 10 uM after 30 mins by vapor diffusion assay.
Assay [3] has the same target. Briefly: Competitive inhibition of human isoprenylcysteine carboxyl methyltransferase using [14C]SAM and N-acetyl-S-farnesyl-L-cysteine as substrate by Lineweaver-Burk plot analysis.
For assay [4] the target is unchanged. Briefly: Inhibition of isoprenylcysteine carboxyl methyltransferase in human Jurkat cells assessed as mislocalization of GFP-K-Ras at 10 uM after 24 hrs by fluorescence microscopic analysis. It counts as cell-based.
Assay [5] has the same target. Description: Un-competitive inhibition of human isoprenylcysteine carboxyl methyltransferase using [14C]SAM and N-acetyl-S-farnesyl-L-cysteine as substrate by Lineweaver-Burk plot analysis.
For assay [6] the target is unchanged. Description: Inhibition of human isoprenylcysteine carboxyl methyltransferase using [14C]SAM and N-acetyl-S-farnesyl-L-cysteine as substrate after 30 mins by vapor diffusion assay.
The target is the same in assay [7]. Briefly: Inhibition of isoprenylcysteine carboxyl methyltransferase in human Jurkat cells assessed as mislocalization of GFP-K-Ras at 45 uM after 24 hrs by fluorescence microscopic analysis. It counts as cell-based.

Activity calls are given as the source filed them. The calls are words filed in the database; no cut-off is given here.

T1 sequence (O60725 whole entry, the tested form may be a part): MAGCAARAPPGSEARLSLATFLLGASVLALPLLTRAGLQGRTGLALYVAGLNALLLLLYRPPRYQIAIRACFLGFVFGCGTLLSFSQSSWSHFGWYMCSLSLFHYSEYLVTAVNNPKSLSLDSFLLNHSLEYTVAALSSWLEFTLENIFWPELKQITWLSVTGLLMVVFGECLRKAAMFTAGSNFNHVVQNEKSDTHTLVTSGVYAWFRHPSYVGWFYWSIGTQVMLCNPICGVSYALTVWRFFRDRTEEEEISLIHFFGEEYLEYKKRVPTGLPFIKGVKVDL

For `COC(=O)CSC/C=C(\C)CC/C=C(\C)CCC=C(C)C`, the outcome in assay [1] was inactive. The compound further gave an inhibition in assay [2] of 28%.

In the case of `CC(C)=CCC/C(C)=C/CC/C(C)=C/CSCC(=O)O`, the outcome in assay [1] was inactive. The compound further had an inhibition in assay [2] of 50%.

For the compound `COC(=O)C(F)(F)SC/C=C(\C)CC/C=C(\C)CCC=C(C)C`, the outcome in assay [1] was inactive. In addition, the inhibition in assay [2] stood at 68%.

With `COCCSC/C=C(\C)CC/C=C(\C)CCC=C(C)C`, the result in assay [1] was inactive. The compound also returned an inhibition in assay [2] of 0%.

For `CC(=O)OCCSC/C=C(\C)CC/C=C(\C)CCC=C(C)C`, the outcome in assay [1] was inactive. Moreover, in assay [2], the inhibition is 27%.

As for `CCCSC/C=C(\C)CC/C=C(\C)CCC=C(C)C`, the result in assay [1] was inactive. This compound yielded an inhibition in assay [2] of 0%.

On to `CC(C)=CCC/C(C)=C/CC/C(C)=C/CSCC(C)O` (configuration not stated), for which the outcome in assay [1] was inactive. The compound also had an inhibition in assay [2] of 72%.

As to `CC(=O)SC/C=C(\C)CC/C=C(\C)CCC=C(C)C`, the outcome in assay [1] was inactive. For the same compound, in assay [2], the inhibition came out at 3%.

`CC(C)=CCC/C(C)=C/CC/C(C)=C/CC/C(C)=C/CSCCO`: the result in assay [1] was inactive. Besides, the inhibition in assay [2] is 40%.

For the compound `CC(C)=CCC/C(C)=C/CC/C(C)=C/CSCCN=[N+]=[N-]`, the outcome in assay [1] was inactive. The inhibition in assay [2] was 11%.

As to `CCOP(=O)(CCSC/C=C(\C)CC/C=C(\C)CCC=C(C)C)OCC`, in assay [1], the result was inactive. Moreover, in assay [2], the inhibition is 36%.

On to `CC(C)=CCC/C(C)=C/CC/C(C)=C/CSCC=O`, for which the result in assay [1] was inactive. In assay [2], the inhibition amounted to 13%.

`CC(C)=CCC/C(C)=C/CC/C(C)=C/CSCCC(=O)NO`: the result in assay [1] was inactive. In assay [2], the inhibition stood at 22%.

Take `CC(C)=CCC/C(C)=C/CC/C(C)=C/CSCCCO`: the outcome in assay [1] was inactive. This compound also displayed an inhibition in assay [2] of 34%.

As for `CC(C)=CCC/C(C)=C/CC/C(C)=C/CSCC(O)CO` (configuration not stated), in assay [1], the outcome was inactive. Also, the inhibition in assay [2] stood at 75%.

On to `CC(C)=CCC/C(C)=C/CC/C(C)=C/CSCCO`, for which the Kic in assay [3] worked out at 0.44 µM. Besides, in assay [1], the result was inactive. The inhibition result in assay [4] was “Active”. This compound came in with a Kiuc in assay [5] of 0.43 µM. The compound also yielded an inhibition in assay [2] of 93%. The IC50 in assay [6] was determined as 860 nM.

In the case of `COC(=O)C(C)(C)SC/C=C(\C)CC/C=C(\C)CCC=C(C)C`, the outcome in assay [1] was inactive. The inhibition in assay [2] is 8%.

Consider `CCOP(=O)(CCCSC/C=C(\C)CC/C=C(\C)CCC=C(C)C)OCC`, for which the result in assay [1] was inactive. In assay [2], this compound showed an inhibition of 20%.

On to `CC(C)=CCC/C(C)=C/CC/C(C)=C/CCSCCO`, for which the result in assay [1] was inactive. The compound also returned an inhibition in assay [2] of 20%.

The compound `CC(C)=CCC/C(C)=C/CC/C(C)=C/CSCCC(=O)O` gave an Activity in assay [1] of 50%. Further, the inhibition in assay [2] came out at 28%.

Take `COC(=O)CSC/C=C(\C)CC/C=C(\C)CC/C=C(\C)CCC=C(C)C`: in assay [1], the result was inactive. This compound gave an inhibition in assay [2] of 12%.

Take `COC(=O)CCSC/C=C(\C)CC/C=C(\C)CCC=C(C)C`: the outcome in assay [1] was inactive. In assay [2], this compound came in with an inhibition of 14%.

Consider `CC(C)=CCC/C(C)=C/CC/C(C)=C/CSCCN`, for which the outcome in assay [1] was inactive. The same compound registered an inhibition in assay [2] of 6%.

Regarding `COC(=O)CSCC/C=C(\C)CC/C=C(\C)CCC=C(C)C`, the outcome in assay [1] was inactive. Further, the inhibition in assay [2] was 12%.

On to `CC(C)=CCC/C(C)=C/CC/C(C)=C/CSC(C)C`, for which the result in assay [1] was inactive. For the same compound, the inhibition in assay [2] is 0%.

Regarding `CC(C)=CCC/C(C)=C/CC/C(C)=C/CSCC(N)=O`, the result in assay [1] was inactive. The inhibition in assay [2] came to 47%.

For `CCC(C)(C)C(=O)O[C@H]1C[C@@H](C)C=C2C=C[C@H](C)[C@H](CC[C@@H]3C[C@@H](O)CC(=O)O3)[C@H]21`, the inhibition entry in assay [7] was “Active”.

In the case of `CC(C)=CCC/C(C)=C/CC/C(C)=C/CSCCS`, the result in assay [1] was inactive. This compound also yielded an inhibition in assay [2] of 0%.

As to `CC(C)=CCC/C(C)=C/CC/C(C)=C/CSC(C)(C)CO`, the outcome in assay [1] was inactive. The same compound returned an inhibition in assay [2] of 32%.

With `CC(C)=CCC/C(C)=C/CC/C(C)=C/CSc1ccccc1C(=O)O`, the inhibition in assay [2] amounted to 40%.

Take `CC(C)=CCC/C(C)=C/CC/C(C)=C/CSC(F)(F)CO`: the outcome in assay [1] was inactive. In assay [2], this compound yielded an inhibition of 44%.

As to `CC(C)=CCC/C(C)=C/CSCCO`, the outcome in assay [1] was inactive. The compound further displayed an inhibition in assay [2] of 0%.

Take `COC(=O)CSC/C=C(\C)CCC=C(C)C`: the result in assay [1] was inactive. Further, in assay [2], the inhibition was 0%.

For `CCOC(=O)NCCSC/C=C(\C)CC/C=C(\C)CCC=C(C)C`, the outcome in assay [1] was inactive. Besides, in assay [2], the inhibition stood at 10%.

As to `CC(C)=CCC/C(C)=C/CC/C(C)=C/CSCC(=O)NO`, the outcome in assay [1] was inactive. In assay [2], this compound showed an inhibition of 36%.

Take `CC(C)=CCC/C(C)=C/CC/C(C)=C/CSCCCBr`: in assay [1], the result was inactive. This compound also returned an inhibition in assay [2] of 9%.

In the case of `CC(C)=CCC/C(C)=C/CC/C(C)=C/CSC(C)(C)C(=O)O`, the result in assay [1] was inactive. The same compound showed an inhibition in assay [2] of 27%.

Turning to `CC(=O)CSC/C=C(\C)CC/C=C(\C)CCC=C(C)C`, the outcome in assay [1] was inactive. Moreover, in assay [2], the inhibition amounted to 25%.

On to `CC(C)=CCC/C(C)=C/CC/C(C)=C/CSCC1OCCO1`, for which the result in assay [1] was inactive. In addition, in assay [2], the inhibition is 9%.

Turning to `CC(C)=CCC/C(C)=C/CSCC(=O)O`, the outcome in assay [1] was inactive. The compound further yielded an inhibition in assay [2] of 0%.

Broadly, the inhibition is the percentage by which the read-out fell short of the control. By IC50 is commonly meant the concentration that gives 50% inhibition.

The values above are taken from ChEMBL document CHEMBL3217500, “Identification of a novel nanomolar inhibitor of hIcmt via a carboxylate replacement approach” (Medchemcomm, 2012).
